# Source: patent US20240092799A1, “MNK INHIBITORS” (Hepagene Therapeutics (HK) Limited, priority 2020, published 2024)
# Biological target: MNK2 (Homo sapiens (Human), UniProt Q9HBH9)
# Experiment: MNK Biochemical Enzymatic Assay (ADP-Glo), MNK2 binding assay
# Experimental: MNK Biochemical Enzymatic Assay. This protocol establishes the binding assays for MNK1 and MNK2 using ADP-Glo assay. MNK phosphorylates the substrate and converts ATP to ADP, which was detected by Envision and used to reflect the reminding activity of MNK. Reagents and equipment used in the assay are listed below, followed by the protocol.
# • a) Add 50 μL compound to 384-well dilution plate • b) Dilute compound 1:3 in succession in DMSO for each column for 10+0 pts (refer to dilution plate map) • c) Transfer 0.1 μL diluted compound solution in each row to 384 assay plate using Echo, each column containing 2 replicates (refer to assay plate map) • d) Add 5 μL enzyme working solution to 384-well assay plate, centrifuge 1000 RPM for 1 min • e) Incubate at 25° C. for 15 min • f) Add 5 μL substrate working solution to initiate reaction • g) Incubate at 25° C. for 60 min • h) Add 10 μL ADP Glo reagent, centrifuge 1000 RPM for 1 min • i) Incubate at 25° C. for 60 min • j) Add 20 μL kinase detection reagent, centrifuge 1000 RPM for 1 min • k) Incubate at 25° C. for 60 min • l) Read on Envision for US LUM as RLU • m) Data analysis: IC50s were determined based on a non-linear regression analysis of data collected.
# Chain of MNK2 (Q9HBH9 whole entry): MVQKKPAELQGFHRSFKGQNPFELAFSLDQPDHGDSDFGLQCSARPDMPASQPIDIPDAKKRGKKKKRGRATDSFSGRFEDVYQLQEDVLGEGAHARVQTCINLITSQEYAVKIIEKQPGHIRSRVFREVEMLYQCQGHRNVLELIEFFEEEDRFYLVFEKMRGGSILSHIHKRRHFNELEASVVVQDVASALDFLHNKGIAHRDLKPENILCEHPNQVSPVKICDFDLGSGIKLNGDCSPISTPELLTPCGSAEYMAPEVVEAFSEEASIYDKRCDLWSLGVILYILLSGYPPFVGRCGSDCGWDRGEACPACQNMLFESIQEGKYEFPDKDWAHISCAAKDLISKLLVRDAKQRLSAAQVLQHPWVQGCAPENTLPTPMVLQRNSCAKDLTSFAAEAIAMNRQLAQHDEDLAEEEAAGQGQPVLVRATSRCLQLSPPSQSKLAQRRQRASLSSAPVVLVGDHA
row,IC50 [nM],Structure (SMILES)
1,> 1000,"O=C1NC2(CCCCC2)c2cc(Nc3cc(N4CCC(F)(F)CC4)ncn3)sc21 [Compound XXIII-L, 2′-((6-(4,4-Difluoropiperidin-1-yl)pyrimidin-4-yl)amino)spiro[cyclohexane-1,4′-thieno[2,3-c]pyrrol]-6′(5′H)-one]"
2,10 to 100,"O=C1NC2(CCCCC2)c2cc(Nc3ncnc4sc5c(c34)CCC(C(=O)N3CCC3)C5)sc21 (centres unmarked) [Compound XXV-D, 2′-((7-(azetidine-1-carbonyl)-5,6,7,8-tetrahydrobenzo[4,5]thieno[2,3-d]pyrimidin-4-yl)amino)spiro[cyclohexane-1,4′-thieno[2,3-c]pyrrol]-6′(5′H)-one]"
3,10 to 100,"Cc1cc(Nc2cc(N[C@H]3CC[C@@H](O)C3)ncn2)[n+]([O-])c2c1C(=O)NC21CCCCC1 (relative stereo) [Compound XXIX-Y, 2′-((6-((cis-3-hydroxycyclopentyl)amino)pyrimidin-4-yl)amino)-4′-methyl-5′-oxo-5′,6′-dihydrospiro[cyclohexane-1,7′-pyrrolo[3,4-b]pyridine] 1′-oxide]"
4,10 to 100,"O=C1NC2(CCCCC2)c2cc(Nc3cc(NC(=O)C4CCNC4)ncn3)sc21 (centres unmarked) [Compound XXIII-V, N-(6-((6′-oxo-5′,6′-dihydrospiro[cyclohexane-1,4′-thieno[2,3-c]pyrrol]-2′-yl)amino)pyrimidin-4-yl)pyrrolidine-3-carboxamide]"
5,10 to 100,"O=C1NC2(CCCCC2)c2cc(Nc3cc(NC4CCCCC4)ncn3)sc21 [Compound XXIV-J, 2′-((6-(cyclohexylamino)pyrimidin-4-yl)amino)spiro[cyclohexane-1,4′-thieno[2,3-c]pyrrol]-6′(5′H)-one]"
6,> 1000,"Cc1cc(-c2cc(-c3cc(N)ncn3)no2)cc2c1C(=O)NC21CCCCC1 [Compound VII, 6′-(3-(6-Aminopyrimidin-4-yl)isoxazol-5-yl)-4′-methylspiro[cyclohexane-1,1′-isoindolin]-3′-one]"
7,10 to 100,"Cc1cc(Nc2cc(NC(=O)N(C)C)ncn2)[n+]([O-])c2c1C(=O)NC21CCCCC1 [Compound XXIX-U, 2′-((6-(3,3-dimethylureido)pyrimidin-4-yl)amino)-4′-methyl-5′-oxo-5′,6′-dihydrospiro[cyclohexane-1,7′-pyrrolo[3,4-b]pyridine] 1′-oxide]"
8,10 to 100,"COCCNc1cc(Nc2cc3c(s2)C(=O)NC32CCCCC2)ncn1 [Compound XXIII-W, 2′-((6-((2-methoxyethyl)amino)pyrimidin-4-yl)amino)spiro[cyclohexane-1,4′-thieno[2,3-c]pyrrol]-6′(5′H)-one]"
9,10 to 100,"O=C1NC2(CCCCC2)c2cc(Nc3cc(N[C@@H]4CCCOC4)ncn3)sc21 [Compound XXIV-F, (R)-2′-((6-((tetrahydro-2H-pyran-3-yl)amino)pyrimidin-4-yl)amino)spiro[cyclohexane-1,4′-thieno[2,3-c]pyrrol]-6′(5′H)-one]"
10,10 to 100,"Cc1cc(Nc2cc(NCCO)ncn2)[n+]([O-])c2c1C(=O)NC21CCCCC1 [Compound XXIX-I, 2′-((6-((2-hydroxyethyl)amino)pyrimidin-4-yl)amino)-4′-methyl-5′-oxo-5′,6′-dihydrospiro[cyclohexane-1,7′-pyrrolo[3,4-b]pyridine] 1′-oxide]"
11,10 to 100,"Cc1cc(Nc2cc(N[C@@H]3CCOC3)ncn2)[n+]([O-])c2c1C(=O)NC21CCCCC1 [Compound XXIX-AX, (R)-4′-methyl-5′-oxo-2′-((6-((tetrahydrofuran-3-yl)amino)pyrimidin-4-yl)amino)-5′,6′-dihydrospiro[cyclohexane-1,7′-pyrrolo[3,4-b]pyridine] 1′-oxide]"
12,10 to 100,"Nc1ncnc(Nc2cc3c(s2)C(=O)NC32CCCCC2)c1Cl [Compound XX, 2′-((6-Amino-5-chloropyrimidin-4-yl)amino)spiro[cyclohexane-1,4′-thieno[2,3-c]pyrrol]-6′(5′H)-one]"
13,100 to 1000,"Cc1cc(Nc2cc(NC3CCS(=O)(=O)C3)ncn2)[n+]([O-])c2c1C(=O)NC21CCCCC1 (centres unmarked) [Compound XXIX-AR, 2′-((6-((1,1-dioxidotetrahydrothiophen-3-yl)amino)pyrimidin-4-yl)amino)-4′-methyl-5′-oxo-5′,6′-dihydrospiro[cyclohexane-1,7′-pyrrolo[3,4-b]pyridine] 1′-oxide]"
14,0.1 to 10,"Cc1cc(Nc2cc(Nc3ccnn3C3CCNCC3)ncn2)[n+]([O-])c2c1C(=O)NC21CCCCC1 [Compound XXIX-AAR, 4′-methyl-5′-oxo-2′-((6-((1-(piperidin-4-yl)-1H-pyrazol-5-yl)amino)pyrimidin-4-yl)amino)-5′,6′-dihydrospiro[cyclohexane-1,7′-pyrrolo[3,4-b]pyridine] 1′-oxide]"
15,10 to 100,"Cc1cc(Nc2cc(NC(=O)N3CCCC3)ncn2)[n+]([O-])c2c1C(=O)NC21CCCCC1 [Compound XXIX-AQ, 4′-methyl-5′-oxo-2′-((6-(pyrrolidine-1-carboxamido)pyrimidin-4-yl)amino)-5′,6′-dihydrospiro[cyclohexane-1,7′-pyrrolo[3,4-b]pyridine] 1′-oxide]"
16,10 to 100,"Cc1cc(Nc2cc(Nc3ccccc3F)ncn2)[n+]([O-])c2c1C(=O)NC21CCCCC1 [Compound XXIX-AI, 2′-((6-((2-fluorophenyl)amino)pyrimidin-4-yl)amino)-4′-methyl-5′-oxo-5′,6′-dihydrospiro[cyclohexane-1,7′-pyrrolo[3,4-b]pyridine] 1′-oxide]"
17,10 to 100,"O=C1NC2(CCCCC2)c2cc(Nc3ncnc4sc5c(c34)CCCC5)sc21 [Compound XXIII-F, 2′-((5,6,7,8-Tetrahydrobenzo[4,5]thieno[2,3-d]pyrimidin-4-yl)amino)spiro [cyclohexane-1,4′-thieno[2,3-c]pyrrol]-6′(5′H)-one]"
18,10 to 100,"CNc1cc(Nc2cc3c(s2)C(=O)NC32CCCCC2)ncn1 [Compound XXIII, 2′-((6-(Methylamino)pyrimidin-4-yl)amino)spiro[cyclohexane-1,4′-thieno[2,3-c]pyrrol]-6′(5′H)-one]"
19,10 to 100,"O=C1NC2(CCCCC2)c2cc(Nc3cc(NCc4cccs4)ncn3)sc21 [Compound XXIV, 2′-((6-((Thiophen-2-ylmethyl)amino)pyrimidin-4-yl)amino)spiro[cyclohexane-1,4′-thieno[2,3-c]pyrrol]-6′(5′H)-one]"
20,10 to 100,"Cc1c(N)ncnc1Nc1cc2c(s1)C(=O)NC21CCCCC1 [Compound X-D, 2′-((6-amino-5-methylpyrimidin-4-yl)amino)spiro[cyclohexane-1,4′-thieno[2,3-c]pyrrol]-6′(5′H)-one]"
21,10 to 100,"COCCCNc1cc(Nc2cc(C)c3c([n+]2[O-])C2(CCCCC2)NC3=O)ncn1 [Compound XXIX-C, 2′-((6-((3-methoxypropyl)amino)pyrimidin-4-yl)amino)-4′-methyl-5′-oxo-5′,6′-dihydrospiro[cyclohexane-1,7′-pyrrolo[3,4-b]pyridine] 1′-oxide]"
22,100 to 1000,"Cc1nc(Nc2ccccn2)cc(Nc2cc(C)c3c([n+]2[O-])C2(CCCCC2)NC3=O)n1 [Compound XXIX-AAB, 4′-methyl-2′-((2-methyl-6-(pyridin-2-ylamino)pyrimidin-4-yl)amino)-5′-oxo-5′,6′-dihydrospiro[cyclohexane-1,7′-pyrrolo[3,4-b]pyridine] 1′-oxide]"
23,10 to 100,"Cc1cc(Nc2cc(NC3CCCC3)ncn2)[n+]([O-])c2c1C(=O)NC21CCCCC1 [Compound XXIX-L, 2′-((6-(cyclopentylamino)pyrimidin-4-yl)amino)-4′-methyl-5′-oxo-5′,6′-dihydrospiro[cyclohexane-1,7′-pyrrolo[3,4-b]pyridine] 1′-oxide]"
